Consider four compounds from US12195427B2, “MASP-2 inhibitors and methods of use” (priority 2018, dated 2025).

As a reminder, the Ki is a measure of affinity in units of concentration, obtained from inhibition or displacement.

In one assay the target is MASP-2 (CCP1-CCP2-SP) (Homo sapiens (Human), UniProt O00187). As to the kind of experiment: Enzymatic Assay for MASP-2 (fluorogenic substrate). It counts as biochemical.
Another assay concerns the target MASP-2 CCP2-SP (Homo sapiens (Human), UniProt O00187). As to the kind of experiment: MASP-2 co-crystallization, X-ray crystallography and structure analysis (H-bonds, van der Waals contacts). Also on record: van der Waals contact distance, MASP-2 HIS 483 atom CD2 / van der Waals contact distance, MASP-2 HIS 483 atom NE2 / van der Waals contact distance, SER 654 C to compound atom / van der Waals contact distance, SER 654 O to compound atom / van der Waals contact distance, TRP 655 C to compound atom / van der Waals contact distance, MASP-2 GLY 528 atom CA / van der Waals contact distance TRP 655 atom CZ3 / van der Waals contact distance TRP 655 atom N / van der Waals contact distance TRP 655 atom CE3 / van der Waals contact distance GLY 656 atom C / van der Waals contact distance GLY 656 atom CA / van der Waals contact distance GLY 656 atom O / van der Waals contact distance, MASP-2 TYR 607 atom CD1 / van der Waals contact distance, MASP-2 PRO 606 atom O / d(C3,CA1) / d(CA1,N1)2 / d(H4,O1) / d(H4,O2) / d(O1,O2) / d(CA1,O2) / d(CA6,O1) / d(CA6,O2) / d(CA1,C5) / d(O2,H3) / d(N2,C2) / d(CA5,N2) / d(N2,C4) / d(N2,C6) / d(N2,CA3) / d(N2,O3) / d(O4,H2): unit not given beside the values. As to conditions: for H-bond distance to MASP-2 ASP 627 atom OD2: ASP 627 OD2; for H-bond distance to MASP-2 SER 654 atom O: SER 654 O; for H-bond distance to MASP-2 SER 657 atom O: SER 657 O; for van der Waals contact distance TRP 655 atom CE3: MASP-2 TRP 655 CE3, compound atom in line below; for van der Waals contact distance GLY 656 atom O: MASP-2 GLY 656 O; for van der Waals contact distance SER 657 atom C: MASP-2 SER 657 C, columns c12-c13 (inferred). In outline:
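Inhibitor complexes were obtained by soaking crystals of E. coli-expressed human MASP-2 CCP2-SP constructs, then flash-cooling in liquid nitrogen. Structures solved by molecular replacement (1Q3X search model) from synchrotron diffraction; where several poses existed, only one was analyzed, and nonbonded contacts listed can include H-bonds.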

Molecules are shown by their SMILES. A value given as a limit tells only on which side of the number the result lay.

Chain of MASP-2 CCP2-SP (O00187 445-686): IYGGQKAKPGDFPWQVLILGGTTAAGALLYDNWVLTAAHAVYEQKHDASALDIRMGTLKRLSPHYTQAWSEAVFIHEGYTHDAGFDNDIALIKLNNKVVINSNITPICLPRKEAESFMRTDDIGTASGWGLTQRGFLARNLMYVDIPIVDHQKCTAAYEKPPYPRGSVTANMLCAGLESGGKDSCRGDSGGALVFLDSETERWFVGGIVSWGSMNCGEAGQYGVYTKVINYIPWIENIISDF
Chain of MASP-2 CCP2-SP (O00187 364-432 partner): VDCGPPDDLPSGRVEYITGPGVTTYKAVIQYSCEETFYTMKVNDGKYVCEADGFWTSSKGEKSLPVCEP
Chain of MASP-2 (CCP1-CCP2-SP) (O00187 445-686): as the sequence (O00187 445-686) above

In the case of `C[C@H](NC(=O)[C@H](N)CCc1ccccc1)C(=O)NCc1ccc(N)nc1` [compound 1007], the Ki on MASP-2 (CCP1-CCP2-SP) is < 0.5 µM. Moreover, at MASP-2 CCP2-SP (Table A1 (H-Bonds)), the “H-bond distance to MASP-2 ASP 627 atom OD2” value is recorded as 3.27, the “H-bond distance to MASP-2 SER 654 atom O” value is on record as 2.94 and the “H-bond distance to MASP-2 SER 657 atom O” value came to 2.88. For the same compound, the “H-bond distance to MASP-2 SER 628 atom O” value at MASP-2 CCP2-SP (Table A1 (H-Bonds), SER 628 O) came to 2.59. Also, the “van der Waals contact distance, MASP-2 HIS 483 atom CD2” value at MASP-2 CCP2-SP (Table A2-1) is 3.38. At MASP-2 CCP2-SP (Table A2-3), the “van der Waals contact distance, MASP-2 PHE 529 atom CD1” value is recorded as 3.83 and the “van der Waals contact distance, MASP-2 PHE 529 atom CZ” value is 3.82. Besides, at MASP-2 CCP2-SP (Table A2-4), the “van der Waals contact distance, MASP-2 TYR 607 atom CD1” value was 3.84. In addition, the “van der Waals contact distance, MASP-2 amino acid atom to compound atom” value on MASP-2 CCP2-SP (Table A2-9, ARG 630, AA atoms CG, CZ) was determined as 3.61. Further, the “van der Waals contact distance, TRP 655 CA to compound atom” value on MASP-2 CCP2-SP (Table A2-12) is reported as 3.31. Further, the “van der Waals contact distance GLY 656 atom C” value on MASP-2 CCP2-SP (Table A2-13, MASP-2 GLY 656 C) was 3.74. On MASP-2 CCP2-SP (Table A2-13), the “van der Waals contact distance TRP 655 atom CE3” value is 3.69. The “van der Waals contact distance TRP 655 atom CZ3” value on MASP-2 CCP2-SP (Table A2-13, MASP-2 TRP 655 CZ3) amounted to 3.78. In addition, the “van der Waals contact distance GLY 656 atom N” value on MASP-2 CCP2-SP (Table A2-14, MASP-2 GLY 656 N) is 3.71. For the same compound, at MASP-2 CCP2-SP (Table A2-14), the “van der Waals contact distance GLY 656 atom O” value is reported as 3.85 and the “van der Waals contact distance SER 657 atom C” value turned out to be 3.87.
Take `C[C@H](NC(=O)[C@H]1C[C@@H](c2ccccc2)CN1)C(=O)NCc1ccc2c(N)nccc2c1` [compound 1089]: the Ki at MASP-2 (CCP1-CCP2-SP) is < 0.5 µM. On MASP-2 CCP2-SP (Table A1 (H-Bonds)), the “H-bond distance to MASP-2 ASP 627 atom OD2” value is listed as 2.8, the “H-bond distance to MASP-2 SER 654 atom O” value was 2.93 and the “H-bond distance to MASP-2 SER 657 atom O” value turned out to be 2.93. Also, at MASP-2 CCP2-SP (Table A1 (H-Bonds), GLY 656 N), the “H-bond distance to MASP-2 GLY 656 atom N” value turned out to be 3.3. The “H-bond distance to MASP-2 GLY 656 atom O” value at MASP-2 CCP2-SP (Table A1 (H-Bonds), GLY 656 O) came out at 2.82. Also, at MASP-2 CCP2-SP (Table A2-1), the “van der Waals contact distance, MASP-2 HIS 483 atom CD2” value was found to be 3.71 and the “van der Waals contact distance, MASP-2 HIS 483 atom NE2” value stood at 3.83. Also, on MASP-2 CCP2-SP (Table A2-4), the “van der Waals contact distance, MASP-2 PRO 606 atom O” value was 3.4. Moreover, at MASP-2 CCP2-SP (Table A2-12), the “van der Waals contact distance, SER 654 O to compound atom” value was 3.57. The “van der Waals contact distance TRP 655 atom CE3” value on MASP-2 CCP2-SP (Table A2-13) is 3.59. Also, at MASP-2 CCP2-SP (Table A2-14), the “van der Waals contact distance GLY 656 atom O” value came out at 2.95 and the “van der Waals contact distance SER 657 atom C” value was 3.86.
Regarding `Cc1nc(N)ccc1CNC(=O)[C@H](C)NC(=O)[C@H]1C[C@@H](c2cccc(CN)c2)CN1` [compound 1291, (2R,4S)—N—((S)-1-(((6-Amino-2-methylpyridin-3-yl)methyl)amino)-1-oxopropan-2-yl)-4-(3-(aminomethyl)phenyl)pyrrolidine-2-carboxamide], the Ki on MASP-2 (CCP1-CCP2-SP) is 0.5 to 2.5 µM.
In turn, `C[C@H](NC(=O)[C@H](N)CCc1ccccc1)C(=O)NCc1cc(Cl)ccc1-n1cnnn1` [compound 1325, (R)-2-amino-N—((S)-1-((5-chloro-2-(1H-tetrazol-1-yl)benzyl)amino)-1-oxopropan-2-yl)-4-phenylbutanamide] came in with a Ki on MASP-2 (CCP1-CCP2-SP) of 0.5 to 2.5 µM.
